Assay [1] has as its target T1, FGFR1 (Homo sapiens, UniProt P11362). Conditions: cited from earlier work.
The subject of the next assay is any gene target. Conditions: cited from earlier work.
The target in assay [2] is T2, VEGFR2 (Homo sapiens, UniProt P35968). Conditions: relative IC50: reported IC50 toward VEGFR2 divided by next lowest reported IC50 to any gene target.
The target in assay [3] is T1, FGFR1.
The next assay relates to Zmpste24−/− mice. Briefly: Mouse model of progeria: body fat (Echo MRI), lean muscle, body weight, intrascapular brown fat. Type of assay: in vivo. Conditions: oral gavage QD5 for 56 days; for Body fat (Echo MRI) vs vehicle / Intrascapular brown fat mass (percent of body weight) vs vehicle: Brivanib alaninate 50, SU5402 25, Cediranib maleate 5, Regorafenib 10, infigratinib 5 mg/kg; for Body weight vs vehicle / Lean muscle vs vehicle: SU5402 25, Cediranib maleate 5, Regorafenib 10, infigratinib 5 mg/kg. As to the method: Zmpste24 mice, a progeria model mouse line, were dosed with either 50 mg/kg Brivanib alaninate for 56 days, 5 days on, 2 days off (QD5), or vehicle alone. The dose was administered via oral gavage as a suspension of 18% (w/v) PEG400 2% (w/v) Tween-80 in water . The vehicle alone was 18% (w/v) PEG400 2% (w/v) Tween-80 in water.
The body fat of the mice was measured by an Echo MRI throughout the treatment.
Samples of intrascapular brown adipose tissue from 15 week old mice treated with Brivanib Alaninate or vehicle for 56 days underwent Hematoxylin and Eosin (H&E) staining.
Zmpste24−/− mice, a progeria model mouse line, were dosed with either 25 mg/kg SU5402 for 56 days, 5 days on, 2 days off (QD5) or vehicle alone. The dose was administered via oral gavage as a suspension of 5% (w/v) DMSO 9% (w/v) PEG400 1% (w/v) Tween-80 in saline. The vehicle alone was 5% (w/v) DMSO 9% (w/v) PEG400 1% (w/v) Tween-80 in saline.
The body fat of the mice was measured by an Echo […]. Lean muscle and body weight were also measured.
The dose was administered via oral gavage as a suspension of 18% (w/v) PEG400 2% (w/v) Tween-80 in water . The vehicle alone was 18% (w/v) PEG400 2% (w/v) Tween-80 in water.
The body fat of the mice was measured by an Echo MRI. […] There was also no alteration of intrascapular brown adipose tissue mass (FIG. 5D).
The dose was administered via oral gavage as a suspension of 18% (w/v) PEG400 2% (w/v) Tween-80 in water. The vehicle alone was 18% (w/v) PEG400 2% (w/v) Tween-80 in water.
The body fat of the mice was measured by an Echo MM. […] There was also no alteration of intrascapular brown adipose tissue mass (FIG. 6D).
The body fat of the mice was measure by an Echo MRI. […] There was also no alteration of intrascapular brown adipose tissue mass (FIG. 7D). […]

The subject of the next assay is VEGFR2 and FGFR1. The assay is described as follows: Selection of compounds that selectively inhibit both VEGFR2 and FGFR1 (average relative IC50).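 Note: relative IC50 is the IC50 for VEGFR2 or FGFR1 divided by the next-lowest IC50 reported against any target gene.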 The assay is classed as biochemical.
In assay [4] the target is T2, VEGFR2. Conditions: read-out: IC50 VEGFR2; cited from earlier work.
Where [5] appears, read: reported IC50 to FGFR1, read-out: FGFR1 IC50_μM.
[6] abbreviates: lowest reported IC50 to any gene target, read-out: Min IC50_μM.
The mark [7] stands for this setting: relative IC50: reported IC50 toward FGFR1 divided by next lowest reported IC50 to any gene target.
The mark [8] stands for this setting: lowest reported IC50 to any gene target, read-out: min IC50.
Setting [9] is: average of VEGFR2 and FGFR1 relative IC50.
Where [10] appears, read: Table 2, list of selective inhibitors of FGFR1, read-out: FGFR1 IC50_μM: reported IC50 to FGFR1.
Where [11] appears, read: Table 2, lowest reported IC50 to any gene target, read-out: Min IC50_μM.

Where two headings read alike, the source gives them in different places.

T1 sequence (P11362 22-822, species assumed): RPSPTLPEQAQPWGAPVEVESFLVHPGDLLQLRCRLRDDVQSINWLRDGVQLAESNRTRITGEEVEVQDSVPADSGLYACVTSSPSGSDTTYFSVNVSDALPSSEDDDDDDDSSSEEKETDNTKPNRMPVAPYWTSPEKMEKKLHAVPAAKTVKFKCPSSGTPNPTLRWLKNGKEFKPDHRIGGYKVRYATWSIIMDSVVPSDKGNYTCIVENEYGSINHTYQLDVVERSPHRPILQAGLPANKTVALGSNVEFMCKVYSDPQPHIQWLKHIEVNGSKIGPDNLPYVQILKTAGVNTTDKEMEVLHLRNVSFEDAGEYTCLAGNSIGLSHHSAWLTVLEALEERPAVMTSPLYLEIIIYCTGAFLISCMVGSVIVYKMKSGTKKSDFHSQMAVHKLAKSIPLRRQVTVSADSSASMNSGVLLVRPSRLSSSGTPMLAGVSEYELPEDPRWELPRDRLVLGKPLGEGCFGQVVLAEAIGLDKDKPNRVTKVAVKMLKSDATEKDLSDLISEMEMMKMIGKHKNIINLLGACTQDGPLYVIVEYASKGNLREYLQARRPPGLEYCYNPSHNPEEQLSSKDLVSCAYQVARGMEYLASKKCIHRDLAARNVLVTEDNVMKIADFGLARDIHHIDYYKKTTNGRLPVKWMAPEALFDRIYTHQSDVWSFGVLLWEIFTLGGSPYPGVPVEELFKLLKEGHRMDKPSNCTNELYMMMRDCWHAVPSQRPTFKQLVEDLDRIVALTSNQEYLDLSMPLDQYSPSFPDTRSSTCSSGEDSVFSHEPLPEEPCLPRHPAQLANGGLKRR
T2 sequence (P35968 20-1356, species assumed): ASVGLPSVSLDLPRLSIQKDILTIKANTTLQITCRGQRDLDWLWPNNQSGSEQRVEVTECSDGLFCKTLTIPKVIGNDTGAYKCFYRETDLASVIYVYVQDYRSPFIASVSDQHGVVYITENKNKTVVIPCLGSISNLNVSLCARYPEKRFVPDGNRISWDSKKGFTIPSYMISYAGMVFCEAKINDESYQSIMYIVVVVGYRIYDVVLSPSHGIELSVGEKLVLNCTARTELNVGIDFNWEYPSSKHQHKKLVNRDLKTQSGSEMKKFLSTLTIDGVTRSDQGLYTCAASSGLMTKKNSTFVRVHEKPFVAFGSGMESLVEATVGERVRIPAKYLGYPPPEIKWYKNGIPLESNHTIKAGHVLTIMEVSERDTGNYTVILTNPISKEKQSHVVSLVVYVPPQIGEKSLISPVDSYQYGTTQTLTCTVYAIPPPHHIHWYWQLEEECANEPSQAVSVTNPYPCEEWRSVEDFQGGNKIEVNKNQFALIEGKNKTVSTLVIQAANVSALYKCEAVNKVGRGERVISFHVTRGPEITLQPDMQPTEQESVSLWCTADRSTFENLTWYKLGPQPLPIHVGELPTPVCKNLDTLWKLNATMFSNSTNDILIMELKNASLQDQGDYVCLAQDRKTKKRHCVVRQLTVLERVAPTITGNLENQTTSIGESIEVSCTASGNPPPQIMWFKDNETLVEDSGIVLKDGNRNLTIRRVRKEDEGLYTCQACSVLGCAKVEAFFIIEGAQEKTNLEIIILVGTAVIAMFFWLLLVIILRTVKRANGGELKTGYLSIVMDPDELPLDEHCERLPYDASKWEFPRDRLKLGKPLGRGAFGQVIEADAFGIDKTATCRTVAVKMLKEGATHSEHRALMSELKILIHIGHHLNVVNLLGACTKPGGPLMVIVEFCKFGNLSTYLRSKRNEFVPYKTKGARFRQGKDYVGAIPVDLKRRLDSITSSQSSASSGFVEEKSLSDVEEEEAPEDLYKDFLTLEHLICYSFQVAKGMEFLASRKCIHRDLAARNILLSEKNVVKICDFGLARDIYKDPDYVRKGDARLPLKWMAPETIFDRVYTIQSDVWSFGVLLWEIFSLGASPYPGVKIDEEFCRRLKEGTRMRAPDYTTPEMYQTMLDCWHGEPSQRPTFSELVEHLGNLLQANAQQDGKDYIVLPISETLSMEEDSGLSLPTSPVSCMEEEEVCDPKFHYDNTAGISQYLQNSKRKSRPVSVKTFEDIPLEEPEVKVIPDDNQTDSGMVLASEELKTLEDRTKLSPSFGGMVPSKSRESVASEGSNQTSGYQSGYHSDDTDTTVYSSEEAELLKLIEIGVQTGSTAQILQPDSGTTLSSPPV

`COC(=O)C1=C(c2ccccc2)c2ccncc2C1=O` [compound 44330158]: the IC50 at FGFR1 [1] (setting [5]) and in the assay with any gene target (setting [6]) was 6800 nM throughout.

Turning to `C=CC(=O)Nc1ccc(CN(C(=O)Nc2c(Cl)c(OC)cc(OC)c2Cl)c2cc(Nc3ccc(N4CCN(C)CC4)cc3)ncn2)cc1` [compound 73707531], the IC50 on FGFR1 [1] (setting [5]) and in the assay with any gene target (setting [6]) was 1 nM in each case.

As to `Cc1c[nH]c(/C=C2\C(=O)Nc3ccccc32)c1CCC(=O)O` [compound 5289418, 3-[(3-(2-Carboxyethyl)-4-methylpyrrol-2-YL)methylene]-2-indolinone], the “VEGFR2, rIC50” value on VEGFR2 [2] stood at 0.7. Also, the “FGFR1, rIC50” value at FGFR1 [3] is reported as 1.5. In the assay with Zmpste24−/− mice, the “Body fat (Echo MRI) vs vehicle” value was “increase in body mass starting at 9 weeks of age”, the “Intrascapular brown fat mass (percent of body weight) vs vehicle” value is given as “made up for more of the body weight percent”, the “Body weight vs vehicle” value is given as “increase in body weight starting at 12 weeks of age” and the “Lean muscle vs vehicle” value is listed as “increase in lean muscle starting at 15 weeks of age”. The IC50 with any gene target (read-out: Min IC50_μM) is 30 nM. Also, the IC50 with any gene target (read-out: min IC50) was 30 nM. Also, in the assay on VEGFR2 and FGFR1, the “avg rIC50” value was 1.1.

Consider `CONC(=O)c1cc(Nc2ncnn3cc(-c4nnco4)c(C(C)C)c23)c(F)cc1F` [compound 11464544, 2,4-Difluoro-5-(5-isopropyl-6-[1,3,4]oxadiazol-2-yl-pyrrolo[2,1-f][1,2,4]triazin-4-ylamino)-N-methoxy-benzamide, reference compound], for which the “VEGFR2, rIC50” value on VEGFR2 [2] is listed as 1.4. The “FGFR1, rIC50” value at FGFR1 [3] (setting [7]) is 1.0. The IC50 on FGFR1 [1] (setting [5]), in the assay with any gene target (setting [6]) and in the assay with any gene target (setting [8]) was 54 nM in each case. In the assay on VEGFR2 and FGFR1 (setting [9]), the “avg rIC50” value is 1.2.

`CONC(=O)c1cc(Nc2ncnn3cc(-c4nnc(C(F)(F)F)o4)c(C(C)C)c23)c(F)cc1F` [compound 11488852, 2,4-Difluoro-5-[5-isopropyl-6-(5-trifluoromethyl-[1,3,4]oxadiazol-2-yl)-pyrrolo[2,1-f][1,2,4]triazin-4-ylamino]-N-methoxy-benzamide, reference compound]: the “VEGFR2, rIC50” value at VEGFR2 [2] came to 1.1. For the same compound, the “FGFR1, rIC50” value on FGFR1 [3] (setting [7]) came out at 1.0. Besides, the IC50 was 33 nM on FGFR1 [1] (read-out: FGFR1 IC50_μM, reported IC50 to FGFR1); 33 nM with any gene target (setting [6]); 33 nM with any gene target (setting [8]). Further, the “avg rIC50” value in the assay with VEGFR2 and FGFR1 (setting [9]) came out at 1.0.

`C=CC(=O)N1CC[C@H](n2cc(-c3cc4cc(C)cc(OC)c4s3)c3c(N)ncnc32)C1` [compound 138617501]: the figures for the IC50 on FGFR1 [1] (setting [10]) and with any gene target (setting [11]) were 0.3 nM and 0.8 nM, respectively.

On to `COC(=O)C1=C(c2ccccc2)c2cc(C)ccc2C1=O.COC(=O)C1=C(c2ccccc2)c2ccc(C)cc2C1=O` [compound 44330102], for which the IC50 at FGFR1 [1] (setting [5]) and in the assay on any gene target (setting [6]) was 6400 nM each time.

With `CCN1CCN(c2ccc(Nc3cc(N(C)C(=O)Nc4c(Cl)c(OC)cc(OC)c4Cl)ncn3)cc2)CC1` [Infigratinib], in the assay with Zmpste24−/− mice, the “Body fat (Echo MRI) vs vehicle” value was “did not show an increase”, the “Intrascapular brown fat mass (percent of body weight) vs vehicle” value is “no alteration”, the “Body weight vs vehicle” value is “did not show an increase” and the “Lean muscle vs vehicle” value is “did not show an increase”.

As to `Cc1oc2c(c1C(=O)N1CC[C@H](N)C1)C(=O)c1c(c(O)c3ccccc3c1O)C2=O` [compound 137631210], the IC50 at FGFR1 [1] (setting [5]) and in the assay with any gene target (setting [6]) was 5000 nM in each case.

Turning to `CONC(=O)c1cc(Nc2ncnn3cc(-c4nnc(C)o4)c(C(C)C)c23)c(F)cc1F` [compound 10478569, 2,4-Difluoro-5-[5-isopropyl-6-(5-methyl-[1,3,4]oxadiazol-2-yl)-pyrrolo[2,1-f][1,2,4]triazin-4-ylamino]-N-methoxy-benzamide, reference compound], the “VEGFR2, rIC50” value on VEGFR2 [2] was found to be 1.2. The “FGFR1, rIC50” value at FGFR1 [3] (setting [7]) is recorded as 1.0. Also, the IC50 at FGFR1 [1] (setting [5]) is 6.5 nM. In addition, the “avg rIC50” value in the assay on VEGFR2 and FGFR1 (setting [9]) was determined as 1.1.

With `CC(C)(C)NC(=O)Nc1nc2nc(N)ncc2cc1-c1ccccc1` [compound 5329111], the IC50 on FGFR1 [1] (setting [5]) was 3700 nM; with any gene target (setting [6]) it was 3710 nM.

Consider `O=c1[nH]c(=O)n(-c2ccc(Oc3ccccc3)cc2)c(=O)n1-c1ccccc1` [compound 139434105], for which the IC50 at FGFR1 [1] (setting [10]) is 890 nM; in the assay with any gene target (setting [11]), 1300 nM.

As to `NC(=O)C1=C(c2ccc(Cl)cc2)c2ccccc2C1=O` [compound 44330203], the IC50 on FGFR1 [1] (setting [5]) and with any gene target (setting [6]) was 5400 nM each time.

For `NS(=O)(=O)c1ccc2c(c1)/C(=C/c1[nH]c3c(c1CCC(=O)O)CCCC3)C(=O)N2` [compound 5329165, Indolin-2-one deriv. 9c, reference compound], the “VEGFR2, rIC50” value at VEGFR2 [2] came to 3.0. Also, the “FGFR1, rIC50” value on FGFR1 [3] (setting [7]) is on record as 0.3. In addition, the IC50 was 200 nM on FGFR1 [1] (setting [10]), 600 nM with any gene target (setting [11]) and 200 nM in the assay on any gene target (setting [8]). Moreover, in the assay with VEGFR2 and FGFR1 (setting [9]), the “avg rIC50” value is 1.7.

Consider Cediranib maleate, for which the IC50 on VEGFR2 [4] was 1 nM. Moreover, in the assay on Zmpste24−/− mice, the “Body fat (Echo MRI) vs vehicle” value is listed as “did not show an increase”, the “Intrascapular brown fat mass (percent of body weight) vs vehicle” value was “no alteration”, the “Body weight vs vehicle” value is reported as “did not show an increase” and the “Lean muscle vs vehicle” value is given as “did not show an increase”.

For the compound `CC(C)(C)NC(=O)Nc1nc2nc(N)ncc2cc1-c1c(Cl)cccc1Cl` [compound 5328112], the IC50 on FGFR1 [1] (setting [5]) is 110 nM; with any gene target (setting [6]), 130 nM.

In the case of `COc1cc(CCc2cc(Nc3ncnc4cc(N5CCN6CCCCC6C5)ccc34)n[nH]2)cc(OC)c1` (centres unmarked) [compound 127047969], the IC50 on FGFR1 [1] (setting [5]) and in the assay with any gene target (setting [6]) was 0.2 nM throughout.

In the case of `Cc1cc(C)c(C)c(-c2cc3cnc(NCCCN4CCN(C)CC4)nc3nc2NC(=O)NC(C)(C)C)c1C` [compound 10602350], the IC50 at FGFR1 [1] (setting [5]) and in the assay with any gene target (setting [6]) was 140 nM each time.

The values are drawn from patent publication US20240156825A1, “USE OF SELECTIVE VEGFR2 AND FGFR1 INHIBITORS” (Fountain Therapeutics Inc., priority 2022, published 2024).
